This is an account of results in US10065945B2, “Isoquinoline derivatives as MGAT2 inhibitors” (Merck Sharp & Dohme Corp., priority 2014, dated 2018).

For orientation: IC50 means the concentration at which inhibition is half-maximal.

Molecules are shown by their SMILES. Where a name gives a salt, the structure may show the parent alone.

Chain of MGAT2 Human (Q3SYC2 whole entry): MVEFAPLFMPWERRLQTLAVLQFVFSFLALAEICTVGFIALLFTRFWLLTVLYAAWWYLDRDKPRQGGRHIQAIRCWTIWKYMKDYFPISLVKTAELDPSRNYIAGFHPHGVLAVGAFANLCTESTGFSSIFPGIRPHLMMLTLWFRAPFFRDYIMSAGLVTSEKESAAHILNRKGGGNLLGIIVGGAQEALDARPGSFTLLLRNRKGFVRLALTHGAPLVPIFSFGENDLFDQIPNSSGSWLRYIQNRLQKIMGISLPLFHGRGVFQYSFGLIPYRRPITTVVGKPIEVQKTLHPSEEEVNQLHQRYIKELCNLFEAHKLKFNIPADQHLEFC

The experiment addresses MGAT2 Human (Homo sapiens (Human), UniProt Q3SYC2). As to the kind of experiment: MGAT2 Human IC50. In kind it is biochemical.
In turn, `COCCOc1ccc(C(=O)N2CCc3ccc(S(=O)(=O)Nc4noc(C(C)(C)C)c4C)cc3C2)cn1` [Example 30, N-(5-(tert-butyl)-4-methylisoxazol-3-yl)-2-(6-(2-methoxyethoxy)nicotinoyl)-1,2,3,4-tetrahydroisoquinoline-7-sulfonamide] registered an IC50 of 31 nM.

`COCCOc1ccc([C@@H](C)N2CCc3ccc(S(=O)(=O)Nc4cc(C(C)(C)C)on4)cc3C2)cn1` [Example 31, 7-(N-(5-(tert-butyl)isoxazol-3-yl)sulfamoyl)-2-((R)-1-(6-(2-methoxyethoxy)pyridin-3-yl)ethyl)-1,2,3,4-tetrahydroisoquinolin-2-ium 2,2,2-trifluoroacetate] displayed a half-maximal inhibitory concentration (IC50) of 17.2 nM.

For `C[C@H](c1ccc(OCC(F)(F)F)nc1)N1CCc2ccc(S(=O)(=O)Nc3noc(C(C)(C)C)c3CO)cc2C1` [Example 32, 7-(N-(5-(tert-butyl)-4-(hydroxymethyl)isoxazol-3-yl)sulfamoyl)-2-((R)-1-(6-(2,2,2-trifluoroethoxy)pyridin-3-yl)ethyl)-1,2,3,4-tetrahydroisoquinolin-2-ium 2,2,2-trifluoroacetate], the IC50 is 19.8 nM. This IC50 and that of the compound before are within 1.5-fold of each other.

As to `CCOC(=O)c1c(NS(=O)(=O)c2ccc3c(c2)CN([C@H](C)c2cc(F)cc(F)c2)CC3)noc1C(C)(C)C` [Example 33, (R)-ethyl 5-(tert-butyl)-3-(2-(1-(3,5-difluorophenyl)ethyl)-1,2,3,4-tetrahydroisoquinoline-7-sulfonamido)isoxazole-4-carboxylate], the IC50 was 3.7 nM.

As to `CNC(=O)c1c(NS(=O)(=O)c2ccc3c(c2)CN([C@H](C)c2cc(F)cc(F)c2)CC3)noc1C(C)(C)C` [Example 34, (R)-5-(tert-butyl)-3-(2-(1-(3,5-difluorophenyl)ethyl)-1,2,3,4-tetrahydroisoquinoline-7-sulfonamido)-N-methylisoxazole-4-carboxamide], the half-inhibitory concentration (IC50) is 6.2 nM.

As to `CCOc1cnc([C@@H](C)N2CCc3ccc(S(=O)(=O)Nc4noc(C(C)(C)C)c4Cl)cc3C2)cn1` [Example 35, (R)—N-(5-(tert-Butyl)-4-chloroisoxazol-3-yl)-2-(1-(5-ethoxypyrazin-2-yl)ethyl)-1,2,3,4-tetrahydroisoquinoline-7-sulfonamide], the IC50 turned out to be 8.3 nM.

For the compound `CCOc1cnc([C@@H](C)N2CCc3ccc(S(=O)(=O)Nc4noc(C(C)(C)C)c4C)cc3C2)cn1` [Example 36, (R)—N-(5-(tert-butyl)-4-methylisoxazol-3-yl)-2-(1-(5-ethoxypyrazin-2-yl)ethyl)-1,2,3,4-tetrahydroisoquinoline-7-sulfonamide], the midpoint of inhibition, the IC50, lay at 3.5 nM.

As for `CCOc1cnc([C@@H](C)N2CCc3ccc(S(=O)(=O)Nc4noc(-c5ccccc5)n4)cc3C2)cn1` [Example 37], the IC50 was determined as 11.5 nM.

The compound `CCCc1cnc(NS(=O)(=O)c2ccc3c(c2)CN([C@H](C)c2cc(F)cc(F)c2)CC3)cn1` [Example 38, (R)-2-(1-(3,5-difluorophenyl)ethyl)-N-(5-propylpyrazin-2-yl)-1,2,3,4-tetrahydroisoquinoline-7-sulfonamide] registered an IC50 of 6 nM. Compared with the last compound, the IC50 is about 1.9-fold lower.

`CCCc1c(NS(=O)(=O)c2ccc3c(c2)CN(Cc2ccc(CC)nc2)CC3)noc1C(C)(C)C` [Example 39, N-(5-(tert-butyl)-4-propylisoxazol-3-yl)-2-((6-ethylpyridin-3-yl)methyl)-1,2,3,4-tetrahydroisoquinoline-7-sulfonamide] had an IC50 of 11 nM.

In turn, `CCc1ccc(CN2CCc3ccc(S(=O)(=O)Nc4noc(C(C)(C)C)c4CC)cc3C2)cn1` [Example 40, N-(5-(tert-butyl)-4-ethylisoxazol-3-yl)-2-((6-ethylpyridin-3-yl)methyl)-1,2,3,4-tetrahydroisoquinoline-7-sulfonamide] returned an IC50 of 15 nM.

Take `CCCc1ccc(CN2CCc3ccc(S(=O)(=O)Nc4noc(C(C)(C)C)c4Br)cc3C2)cn1` [Example 41, N-(4-bromo-5-(tert-butyl)isoxazol-3-yl)-2-((6-propylpyridin-3-yl)methyl)-1,2,3,4-tetrahydroisoquinoline-7-sulfonamide]: the IC50 stood at 6.8 nM.

In turn, `CCc1ccc([C@@H](C)N2CCc3ccc(S(=O)(=O)Nc4noc(C(C)(C)C)c4C)cc3C2)cn1` [Example 42, (R)—N-(5-(tert-butyl)-4-methylisoxazol-3-yl)-2-(1-(6-ethylpyridin-3-yl)ethyl)-1,2,3,4-tetrahydroisoquinoline-7-sulfonamide] returned an IC50 of 8.2 nM. The IC50 values of the last two compounds are within 1.5-fold of each other.

Compound `CCCc1ccc([C@@H](C)N2CCc3ccc(S(=O)(=O)Nc4noc(C(C)(C)C)c4Br)cc3C2)cn1` [Example 43, (R)—N-(4-bromo-5-(tert-butyl)isoxazol-3-yl)-2-(1-(6-propylpyridin-3-yl)ethyl)-1,2,3,4-tetrahydroisoquinoline-7-sulfonamide] gave an IC50 of 1.6 nM.

In turn, `CC(C)(C)c1onc(NS(=O)(=O)c2cnc3c(c2)CN(Cc2cc(F)cc(F)c2)CC3)c1Br` [Example 44, N-(4-bromo-5-(tert-butyl)isoxazol-3-yl)-6-(3,5-difluorobenzyl)-5,6,7,8-tetrahydro-1,6-naphthyridine-3-sulfonamide Trifluoroacetate] came in with an IC50 of 118 nM.

The compound `CCCc1cnc(NS(=O)(=O)c2ccc3c(c2)CN([C@H](C)c2ccc(OCC(F)(F)F)nc2)CC3)cn1` [Example 45, 7-(N-(5-propylpyrazin-2-yl)sulfamoyl)-2-((R)-1-(6-(2,2,2-trifluoroethoxy)pyridin-3-yl)ethyl)-1,2,3,4-tetrahydroisoquinolin-2-ium 2,2,2-trifluoroacetate] yielded an IC50 of 7.3 nM. This IC50 lies about 16-fold lower than the previous one.

Consider `CCc1cnc(NS(=O)(=O)c2ccc3c(c2)CN([C@H](C)c2ccc(OCC(F)F)nc2)CC3)cn1` [Example 46, 2-((R)-1-(6-(2,2-difluoroethoxy)pyridin-3-yl)ethyl)-7-(N-(5-ethylpyrazin-2-yl)sulfamoyl)-1,2,3,4-tetrahydroisoquinolin-2-ium 2,2,2-trifluoroacetate], for which 12.7 nM corresponded to half-maximal inhibition (IC50).

In turn, `CC(C)Nc1cnc(NS(=O)(=O)c2ccc3c(c2)CN([C@H](C)c2ccc(OCC(F)(F)F)nc2)CC3)cn1` [Example 47, 7-(N-(5-(isopropylamino)pyrazin-2-yl)sulfamoyl)-2-((R)-1-(6-(2,2,2-trifluoroethoxy)pyridin-3-yl)ethyl)-1,2,3,4-tetrahydroisoquinolin-2-ium 2,2,2-trifluoroacetate] registered a half-inhibitory concentration (IC50) of 13.9 nM. The IC50 values of the last two compounds are within 1.5-fold of each other.

`COCCOc1ccc([C@@H](C)N2CCc3ccc(S(=O)(=O)Nc4cnc(C5CC5)cn4)cc3C2)cn1` [Example 48, 7-(N-(5-cyclopropylpyrazin-2-yl)sulfamoyl)-2-((R)-1-(6-(2-methoxyethoxy)pyridin-3-yl)ethyl)-1,2,3,4-tetrahydroisoquinolin-2-ium 2,2,2-trifluoroacetate] had an IC50 of 21.3 nM.

In turn, `COc1ccc(NS(=O)(=O)c2ccc3c(c2)CN([C@H](C)c2ccc(OCC(F)(F)F)nc2)CC3)nn1` [Example 49, (R)—N-(6-methoxypyridazin-3-yl)-2-(1-(6-(2,2,2-trifluoroethoxy)pyridin-3-yl)ethyl)-1,2,3,4-tetrahydroisoquinoline-7-sulfonamide] registered an IC50 of 8.7 nM.

`C[C@H](c1ccc(OCC(F)(F)F)nc1)N1CCc2ccc(S(=O)(=O)Nc3ccc(C(C)(C)C)nn3)cc2C1` [Example 50, 7-(N-(6-(tert-butyl)pyridazin-3-yl)sulfamoyl)-2-((R)-1-(6-(2,2,2-trifluoroethoxy)pyridin-3-yl)ethyl)-1,2,3,4-tetrahydroisoquinolin-2-ium 2,2,2-trifluoroacetate] returned an IC50 of 3.8 nM.

Turning to `CCOC(=O)c1noc(NS(=O)(=O)c2ccc3c(c2)CN([C@H](C)c2cc(F)cc(F)c2)CC3)n1` [Example 51, (R)-ethyl 5-(2-(1-(3,5-difluorophenyl)ethyl)-1,2,3,4-tetrahydroisoquinoline-7-sulfonamido)-1,2,4-oxadiazole-3-carboxylate], the IC50 is 14 nM. This IC50 lies about 3.7-fold higher than the previous one.

Compound `C[C@H](c1cc(F)cc(F)c1)N1CCc2ccc(S(=O)(=O)Nc3nc(C(N)=O)no3)cc2C1` [Example 52, (R)-5-(2-(1-(3,5-difluorophenyl)ethyl)-1,2,3,4-tetrahydroisoquinoline-7-sulfonamido)-1,2,4-oxadiazole-3-carboxamide] had an IC50 of 31 nM.

In the case of `CCNC(=O)c1noc(NS(=O)(=O)c2ccc3c(c2)CN([C@H](C)c2cc(F)cc(F)c2)CC3)n1` [Example 53], the IC50 was 7.1 nM.

`C[C@H](c1cc(F)cc(F)c1)N1CCc2ccc(S(=O)(=O)Nc3nc(C(=O)NCC(F)(F)F)no3)cc2C1` [Example 54] displayed an IC50 of 16 nM. Against the preceding compound, the IC50 is about 2.3-fold higher.

Turning to `C[C@H](c1cc(F)cc(F)c1)N1CCc2ccc(S(=O)(=O)Nc3nc(C(=O)N4CCC4)no3)cc2C1` [Example 55], the IC50 was determined as 3.7 nM.

`C[C@H](c1cc(F)cc(F)c1)N1CCc2ccc(S(=O)(=O)Nc3nc(C(=O)N(C)C)no3)cc2C1` [Example 56]: the IC50 was 5.7 nM.
